We go through one compound from patent publication US20230310386A1, “INJECTABLE PHARMACEUTICAL COMPOSITIONS AND USES THEREOF” (Intervet Inc., priority 2020, published 2023).

Molecules are shown by their SMILES. “And” between values parts separate entries of the source, which are not always exact repeats. Identical values can stand only once.

The nature of this series: Dose accuracy study of the reconstituted composition comprising moxidectin and fluralaner. It is filed as physicochemical. The following applies: reconstituted composition of Example 9, 1 mL doses #1-6. The method, then:
The vial comprising moxidectin microspheres from Example 3 and fluralaner particles from Example 7 were reconstituted with 17 mL of the aqueous carrier of Example 6. During reconstitution the vial containing the moxidectin microspheres and fluralaner particles was rotated while being held horizontally throughout carrier addition.
Once all the carrier was added, the vial was shaken for 1 minute.
Herein, the vial with the reconstituted composition as described above was manipulated in one of the following ways: • vigorously hand shaken for 1, 2 or 3 minutes prior to sampling; • vigorously hand shaken for 3 minutes and mixed using the syringe 5 times prior to sampling; or • vigorously hand shaken for 3 minutes, mixed using the syringe 5 times and vortexed for […] prior to sampling.
After the solid material was completely suspended, six 1 mL doses were sampled from the vial. Prior to each dose, the vial was vigorously shaken for 15 seconds to avoid settling between samples.
Each of the six doses were transferred to a separate 50 mL volumetric flask along with 10 mL of water: then the samples were diluted to volume with 50/50 acetonitrile/isopropanol and sonicated for 20 minutes.
These samples were analysed to determine the moxidectin concentration.
Additionally, 1 mL of the samples were transferred into separate 25 mL volumetric flasks and diluted with 40/40/20 acetonitrile/isopropanol/water. The fluralaner concentrations were determined from these diluted samples.

As to `Cc1cc(C2=NOC(c3cc(Cl)cc(Cl)c3)(C(F)(F)F)C2)ccc1C(=O)NCC(=O)NCC(F)(F)F` (centres unmarked) [Fluralaner, 4-[5-(3,5-dichlorophenyl)-5-trifluoromethyl-4,5-dihydroisoxazol-3-yl]-2-methyl-N-[(2,2,2-trifluoro-ethylcarbamoyl)-methyl]-benzamide], the “Fluralaner Percent Label Claim” value was 104.38 Percent Label Claim and 90.80 Percent Label Claim and 102.68 Percent Label Claim and 101.83 Percent Label Claim and 106.97 Percent Label Claim and 103.52 Percent Label Claim (hand shaken for 1 minute); 80.44 Percent Label Claim and 103.67 Percent Label Claim and 102.82 Percent Label Claim and 84.95 Percent Label Claim and 99.01 Percent Label Claim and 107.40 Percent Label Claim (hand shaken for 2 minutes); 95.36 Percent Label Claim and 102.59 Percent Label Claim and 95.41 Percent Label Claim and 99.43 Percent Label Claim and 108.06 Percent Label Claim and 88.68 Percent Label Claim (hand shaken for 3 minutes); 105.95 Percent Label Claim and 104.31 Percent Label Claim and 89.74 Percent Label Claim and 105.87 Percent Label Claim and 104.26 Percent Label Claim and 103.83 Percent Label Claim (hand shaken for 3 minutes and mixed using a syringe); 100.86 Percent Label Claim and 106.80 Percent Label Claim and 105.14 Percent Label Claim and 105.86 Percent Label Claim and 106.37 Percent Label Claim and 104.61 Percent Label Claim (hand shaken for 3 minutes, mixed using a syringe, and vortexed).
